Measurements taken from ChEMBL document CHEMBL3526078, “Pharmacokinetics and hepatic uptake of eltrombopag, a novel platelet-increasing agent” (Drug Metab Dispos, 2011).

How the values were obtained:
[1] = system: Hepatocyte; assay: Drug uptake in mouse hepatocytes at pH 5.5; type: ADME, cell-based
[2] = system: Hepatocyte; assay: Drug uptake in mouse hepatocytes in presence of tetraethylammonium; type: ADME, cell-based
[3] = target: T1, Solute carrier organic anion transporter family member 1B3 (Homo sapiens, UniProt Q9NPD5); assay: Inhibition of OATP1B3-mediated [3H]estradiol 17beta-glucuronide uptake in human OATP1B3 expressing HEK293/PDZK1 cells by scintillation counting; type: ADME, cell-based
T1 sequence (Q9NPD5 whole entry): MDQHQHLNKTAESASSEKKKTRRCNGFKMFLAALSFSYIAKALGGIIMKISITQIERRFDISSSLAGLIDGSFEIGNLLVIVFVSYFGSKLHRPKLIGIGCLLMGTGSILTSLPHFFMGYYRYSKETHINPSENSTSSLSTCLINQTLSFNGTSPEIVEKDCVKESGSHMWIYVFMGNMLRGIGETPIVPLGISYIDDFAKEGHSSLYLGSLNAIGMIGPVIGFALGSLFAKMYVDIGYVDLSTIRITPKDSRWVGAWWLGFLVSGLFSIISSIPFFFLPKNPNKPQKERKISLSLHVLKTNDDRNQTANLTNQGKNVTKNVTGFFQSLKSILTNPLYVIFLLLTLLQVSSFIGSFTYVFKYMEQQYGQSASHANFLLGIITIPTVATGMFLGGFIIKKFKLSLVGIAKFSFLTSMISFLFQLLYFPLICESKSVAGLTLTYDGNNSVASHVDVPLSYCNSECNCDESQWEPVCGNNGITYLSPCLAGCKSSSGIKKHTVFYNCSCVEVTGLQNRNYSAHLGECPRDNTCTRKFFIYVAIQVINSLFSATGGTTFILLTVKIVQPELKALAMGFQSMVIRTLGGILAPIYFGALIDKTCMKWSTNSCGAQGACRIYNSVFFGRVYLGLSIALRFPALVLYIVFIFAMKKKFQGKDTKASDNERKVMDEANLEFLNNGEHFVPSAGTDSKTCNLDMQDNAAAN

[4] = system: Kidney; assay: Drug uptake in mouse kidney at 1 mg/kg, iv in presence of 20 mg/kg OATP inhibitor rifampicin; type: ADME, organism-based; settings: in vivo
[5] = system: Hepatocyte; assay: Drug uptake in mouse hepatocytes at pH 7.4; type: ADME, cell-based
[6] = system: Hepatocyte; assay: Drug uptake in mouse hepatocytes in presence of rotenone ATP depletor; type: ADME, cell-based
[7] = system: Hepatocyte; assay: Drug uptake in mouse hepatocytes in presence of GABA; type: ADME, cell-based
[8] = system: Kidney; assay: Drug uptake in mouse kidney at 1 mg/kg, iv in presence of 30 umol/kg TPeA; type: ADME, organism-based; parameters: dose 1 mg/kg, route intravenous; settings: in vivo
[9] = system: Hepatocyte; assay: Drug uptake in mouse hepatocytes at 4 degC; type: ADME, cell-based
[10] = Clearance in Sprague-Dawley rat urine at 1 mg/kg, iv; type: ADME, organism-based; parameters: dose 1 mg/kg, route intravenous
[11] = Maximum plasma concentration in mouse at 1 mg/kg, iv; type: ADME, organism-based; parameters: dose 1 mg/kg, route intravenous
[12] = Total clearance in pdzk1(-/-) mouse at 1 mg/kg, iv; type: ADME, organism-based; parameters: dose 1 mg/kg, route intravenous; settings: in vivo
[13] = Total clearance in wild-type mouse at 1 mg/kg, iv; type: ADME, organism-based; parameters: dose 1 mg/kg, route intravenous; settings: in vivo
[14] = system: Liver; settings: rat, in vivo, iv, 1 mg/kg
[15] = system: Hepatocyte; assay: Drug uptake in mouse hepatocytes in presence of phenylalanine; type: ADME, cell-based
[16] = Drug excretion in Sprague-Dawley rat bile assessed as unchanged compound level at 1 mg/kg, iv for 72 hrs; type: ADME, organism-based; parameters: dose 1 mg/kg, route intravenous; settings: read-out: Drug excretion
[17] = system: Liver; assay: Drug uptake in mouse liver at 1 mg/kg, iv in presence of rifampicin OATP inhibitor; type: ADME, organism-based; parameters: dose 1 mg/kg, route intravenous; settings: in vivo
[18] = target: T2, Organic cation/carnitine transporter 2 (Homo sapiens, UniProt O76082); assay: Inhibition of OCTN2-mediated [14C]carnitine uptake in human OCTN2 expressing HEK293/PDZK1 cells by scintillation counting; type: cell-based
T2 sequence (O76082 whole entry): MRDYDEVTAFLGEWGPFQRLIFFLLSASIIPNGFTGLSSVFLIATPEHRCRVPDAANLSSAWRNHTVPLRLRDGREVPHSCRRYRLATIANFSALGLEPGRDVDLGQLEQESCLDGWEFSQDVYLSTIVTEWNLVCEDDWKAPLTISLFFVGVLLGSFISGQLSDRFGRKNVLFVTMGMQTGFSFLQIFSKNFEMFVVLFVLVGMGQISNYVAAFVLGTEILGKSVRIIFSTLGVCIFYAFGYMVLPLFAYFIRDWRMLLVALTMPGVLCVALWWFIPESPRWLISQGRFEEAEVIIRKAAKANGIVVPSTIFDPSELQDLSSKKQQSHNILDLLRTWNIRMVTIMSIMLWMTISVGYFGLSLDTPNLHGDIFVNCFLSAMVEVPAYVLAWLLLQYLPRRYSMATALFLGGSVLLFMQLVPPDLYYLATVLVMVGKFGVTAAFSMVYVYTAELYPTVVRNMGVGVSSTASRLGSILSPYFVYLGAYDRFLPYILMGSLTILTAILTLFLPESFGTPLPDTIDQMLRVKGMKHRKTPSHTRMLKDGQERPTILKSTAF

[19] = system: Hepatocyte; assay: Drug uptake in mouse hepatocytes at 37 degC up to 5 mins; type: ADME, cell-based
[20] = system: Hepatocyte; assay: Drug uptake in mouse hepatocytes in presence of rifampicin OATP inhibitor; type: ADME, cell-based
[21] = target: T3, Solute carrier organic anion transporter family member 1B1 (Homo sapiens, UniProt Q9Y6L6); assay: Inhibition of OATP1B1-mediated [3H]estrone-3-sulfate uptake in human OATP1B1 expressing HEK293/PDZK1 cells by scintillation counting; type: ADME, cell-based
T3 sequence (Q9Y6L6 whole entry): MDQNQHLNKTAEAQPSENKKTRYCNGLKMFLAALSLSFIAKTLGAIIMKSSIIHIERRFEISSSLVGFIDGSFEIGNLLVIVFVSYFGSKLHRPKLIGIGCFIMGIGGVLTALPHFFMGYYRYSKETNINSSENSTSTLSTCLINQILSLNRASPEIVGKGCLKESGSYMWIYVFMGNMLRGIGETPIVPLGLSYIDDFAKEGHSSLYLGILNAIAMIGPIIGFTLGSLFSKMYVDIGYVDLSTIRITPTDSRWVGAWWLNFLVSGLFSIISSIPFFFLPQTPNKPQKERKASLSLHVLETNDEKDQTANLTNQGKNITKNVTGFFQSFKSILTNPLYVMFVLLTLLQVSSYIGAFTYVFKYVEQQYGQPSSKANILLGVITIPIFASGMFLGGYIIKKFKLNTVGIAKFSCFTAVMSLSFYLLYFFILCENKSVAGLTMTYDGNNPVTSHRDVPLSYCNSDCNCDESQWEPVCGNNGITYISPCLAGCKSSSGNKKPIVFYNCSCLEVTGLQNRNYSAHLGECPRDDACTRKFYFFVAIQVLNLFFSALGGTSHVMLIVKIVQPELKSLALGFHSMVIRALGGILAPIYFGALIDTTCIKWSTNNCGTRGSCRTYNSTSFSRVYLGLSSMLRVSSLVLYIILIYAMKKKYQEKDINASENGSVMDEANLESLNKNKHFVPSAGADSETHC

CC1=NN(c2ccc(C)c(C)c2)C(=O)/C1=N\Nc1cccc(-c2cccc(C(=O)O)c2)c1O [ELTROMBOPAG]
Drug uptake [1]: Active | Drug uptake [2]: Not Active | Ki [3]: 25.6 µM | inhibition (INH) ([3]; human, hek293/pdzk1): Active | Drug uptake [4]: Active | Drug uptake [5]: Active | Drug uptake [6]: Not Active | Drug uptake [7]: Not Active | Drug uptake [8]: Active | Drug uptake [9]: Not Active | CL renal [10]: < 0.00117 mL/min/kg | Cmax [11]: 40 µM | clearance [12]: 0.92 mL/min/kg | clearance [13]: 1.29 mL/min/kg | CLup [14]: 0.38 mL/min/kg | Drug uptake [15]: Not Active | dose excreted at 72 h [16]: 40% | Drug uptake [17]: Not Active | inhibition (INH) [18]: Not Active | Drug uptake [19]: Active | Drug uptake [20]: Not Active | Ki [21]: 14.9 µM | inhibition (INH) ([21]; human, hek293/pdzk1): Active
